Values quoted from earlier work, collected in US20120252695A1 (Janssen R&D Ireland, priority 2009, published 2012).

Test system: HCV
Conditions: carriers of two copies of the advantageous IL28B variant; multi-ethnic population

Substance: IFN-α
- patients who cleared the virus and remained virus-free 24 weeks post-treatment: approximately 80%
